pEC50, pIC50: −log10 of the molar value.
Columns and labels:
acetylated histones = assay: High-content image analysis of induction of acetylated histones in A549 cells; settings: for pEC50: Homo sapiens, A549, 8 h, read-out: EC50 for half-maximal induction of acetylated histones (AcHistone); for levels of acetylated histone, dose response (in words): A549 cells, FIG. 11
Procedure: Cells were treated with each test HDACi compound with an automated pin transfer instrument (Janus, Perkin Elmer) and incubated for 8 hours. […] Fixation solution was aspirated and 90 μL of washing solution (0.1% Triton X-100 in PBS) was added prior to 10 minute incubation at 4° C. Washing solution was aspirated and cells were incubated at 4° C. for about 1 hour in blocking solution (0.1% Triton X-100+2% BSA in PBS). Washing solution was aspirated, and cells were incubated for about 1 hour at 4° C. in primary antibody for acetylated-tubulin (Sigma T7451) and acetylated-histone (Cell Signaling #9441L) at a 1:1000 dilution in blocking solution. Primary antibody solution was aspirated, and cells were washed three times in 90 μL of washing solution. […] Secondary antibody and nuclear staining solution was aspirated and cells were washed three times in 90 μL of washing solution. After the third wash, 50 μL of PBS was added to each well. Image acquisition was done on a high content imaging microscope (ImageXpress Micro, Molecular Devices), and image analysis (MetaXpress, Molecular Devices) was performed to obtain average acetylated-tubulin and acetylated-histone signal per cell based on treatment. Replicate experimental data from incubations with inhibitor were normalized to DMSO controls.

HDAC3 = molecular target: T1, HDAC3 (Homo sapiens, UniProt O15379); assay: In vitro HDAC enzyme inhibition assay, HDAC3; format: biochemical; settings: for HDAC3/HDAC6 in vitro selectivity: ratio of IC50 for HDAC3 relative to that of HDAC6; for pIC50: recombinant full-length HDAC3, substrate MAZ1600 9 μM
T1 construct: Recombinant, full-length HDAC protein (BPS Biosciences) was incubated with fluorophore conjugated substrate; purchased BPS Biosciences
T1 sequence (O15379 whole entry): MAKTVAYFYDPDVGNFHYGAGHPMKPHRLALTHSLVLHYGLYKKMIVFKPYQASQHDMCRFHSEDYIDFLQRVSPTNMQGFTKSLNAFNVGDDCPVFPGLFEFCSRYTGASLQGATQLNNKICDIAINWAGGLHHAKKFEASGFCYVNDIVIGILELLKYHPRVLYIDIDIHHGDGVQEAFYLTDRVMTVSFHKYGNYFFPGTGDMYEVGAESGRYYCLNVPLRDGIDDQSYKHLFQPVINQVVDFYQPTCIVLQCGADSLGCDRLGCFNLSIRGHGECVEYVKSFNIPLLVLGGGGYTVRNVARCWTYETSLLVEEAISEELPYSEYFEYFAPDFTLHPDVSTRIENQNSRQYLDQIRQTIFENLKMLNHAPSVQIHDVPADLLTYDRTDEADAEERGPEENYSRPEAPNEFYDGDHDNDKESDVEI
T1 sequence (Q9Y618 395-489 partner limits assumed): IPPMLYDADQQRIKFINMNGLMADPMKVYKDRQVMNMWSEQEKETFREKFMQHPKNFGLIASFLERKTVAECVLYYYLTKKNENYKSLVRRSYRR
Outline: (§1)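 Deacetylase activity of full-length recombinant HDAC assessed via trypsin-coupled AMC release from substrate at Km concentration, pH 7.4 buffer with TCEP. Kinetic fluorescence slopes were normalized to controls.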

HDAC8 = molecular target: T2, HDAC8 (Homo sapiens, UniProt Q9BY41); assay: In vitro HDAC enzyme inhibition assay, HDAC8; format: biochemical; settings: for HDAC8/HDAC6 in vitro selectivity: ratio of IC50 for HDAC8 relative to that of HDAC6; for pIC50: recombinant full-length HDAC8, substrate MAZ1675 282 μM
T2 construct: Recombinant, full-length HDAC protein (BPS Biosciences) was incubated with fluorophore conjugated substrate; purchased BPS Biosciences
T2 sequence (Q9BY41 1-377): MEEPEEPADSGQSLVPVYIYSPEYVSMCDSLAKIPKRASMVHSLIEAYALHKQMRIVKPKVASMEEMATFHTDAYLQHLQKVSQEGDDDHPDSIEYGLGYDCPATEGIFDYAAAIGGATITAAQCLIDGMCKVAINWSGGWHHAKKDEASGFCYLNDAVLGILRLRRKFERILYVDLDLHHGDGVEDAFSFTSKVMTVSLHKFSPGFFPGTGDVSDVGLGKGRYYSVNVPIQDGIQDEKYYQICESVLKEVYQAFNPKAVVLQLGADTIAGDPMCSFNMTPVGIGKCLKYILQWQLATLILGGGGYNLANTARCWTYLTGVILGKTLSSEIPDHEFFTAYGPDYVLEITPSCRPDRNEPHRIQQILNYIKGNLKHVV
Outline: as §1

HDAC9 = molecular target: T3, HDAC9 (Homo sapiens, UniProt Q9UKV0); assay: In vitro HDAC enzyme inhibition assay, HDAC9; format: biochemical; settings: for HDAC9/HDAC6 in vitro selectivity: ratio of IC50 for HDAC9 relative to that of HDAC6; for pIC50: recombinant full-length HDAC9, substrate MAZ1675 26 μM; for selectivity toward HDAC6 compared to HDAC9 (in words): tested in vitro
T3 construct: Recombinant, full-length HDAC protein (BPS Biosciences) was incubated with fluorophore conjugated substrate; purchased BPS Biosciences
T3 sequence (Q9UKV0 whole entry): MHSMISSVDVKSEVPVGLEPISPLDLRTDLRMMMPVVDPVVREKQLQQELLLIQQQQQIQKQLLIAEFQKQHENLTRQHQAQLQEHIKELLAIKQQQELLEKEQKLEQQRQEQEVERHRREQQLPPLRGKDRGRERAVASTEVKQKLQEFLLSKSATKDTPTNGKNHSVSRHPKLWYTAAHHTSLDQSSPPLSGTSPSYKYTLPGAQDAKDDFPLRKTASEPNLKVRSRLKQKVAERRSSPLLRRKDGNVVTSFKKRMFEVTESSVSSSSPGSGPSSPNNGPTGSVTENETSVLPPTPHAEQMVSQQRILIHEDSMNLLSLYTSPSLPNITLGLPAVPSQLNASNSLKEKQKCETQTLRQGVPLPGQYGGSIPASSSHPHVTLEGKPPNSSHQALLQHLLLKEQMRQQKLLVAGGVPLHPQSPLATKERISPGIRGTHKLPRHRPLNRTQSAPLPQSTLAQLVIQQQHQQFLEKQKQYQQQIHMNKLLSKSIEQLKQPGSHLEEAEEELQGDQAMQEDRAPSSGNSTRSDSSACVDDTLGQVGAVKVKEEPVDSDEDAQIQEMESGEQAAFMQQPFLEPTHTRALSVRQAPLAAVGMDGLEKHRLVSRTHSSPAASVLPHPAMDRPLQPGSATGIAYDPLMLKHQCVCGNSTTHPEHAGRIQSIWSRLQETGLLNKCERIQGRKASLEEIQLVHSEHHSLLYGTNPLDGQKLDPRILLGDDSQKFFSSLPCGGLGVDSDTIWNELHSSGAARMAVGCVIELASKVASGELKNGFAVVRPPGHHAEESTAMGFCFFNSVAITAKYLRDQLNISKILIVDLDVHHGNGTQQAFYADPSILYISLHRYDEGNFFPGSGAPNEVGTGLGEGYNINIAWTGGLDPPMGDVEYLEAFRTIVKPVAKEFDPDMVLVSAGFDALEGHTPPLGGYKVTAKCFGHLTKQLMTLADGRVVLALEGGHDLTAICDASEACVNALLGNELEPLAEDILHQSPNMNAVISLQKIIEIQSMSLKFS
Outline: as §1

acetylated tubulin = assay: High-content image analysis of induction of acetylated tubulin in A549 cells; settings: for pEC50: Homo sapiens, A549, 8 h, read-out: EC50 for half-maximal induction of acetylated tubulin (AcTubulin); for AcHistone/AcTubulin in cell selectivity toward HDAC6: ratio of EC50 acetylated histone to EC50 acetylated tubulin; for AcHistone/AcTubulin in cell selectivity toward HDAC6 / levels of acetylated tubulin, dose response (in words): A549 cells; for levels of acetylated tubulin, dose response (in words): FIG. 11
HDAC4 = molecular target: T4, HDAC4 (Homo sapiens, UniProt P56524); assay: In vitro HDAC enzyme inhibition assay, HDAC4; format: biochemical; settings: for HDAC4/HDAC6 in vitro selectivity: ratio of IC50 for HDAC4 relative to that of HDAC6; for pIC50: recombinant full-length HDAC4, substrate MAZ1675 10 μM; for selectivity toward HDAC6 compared to HDAC4 (in words): tested in vitro
T4 construct: Recombinant, full-length HDAC protein (BPS Biosciences) was incubated with fluorophore conjugated substrate; purchased BPS Biosciences
T4 sequence (P56524 whole entry): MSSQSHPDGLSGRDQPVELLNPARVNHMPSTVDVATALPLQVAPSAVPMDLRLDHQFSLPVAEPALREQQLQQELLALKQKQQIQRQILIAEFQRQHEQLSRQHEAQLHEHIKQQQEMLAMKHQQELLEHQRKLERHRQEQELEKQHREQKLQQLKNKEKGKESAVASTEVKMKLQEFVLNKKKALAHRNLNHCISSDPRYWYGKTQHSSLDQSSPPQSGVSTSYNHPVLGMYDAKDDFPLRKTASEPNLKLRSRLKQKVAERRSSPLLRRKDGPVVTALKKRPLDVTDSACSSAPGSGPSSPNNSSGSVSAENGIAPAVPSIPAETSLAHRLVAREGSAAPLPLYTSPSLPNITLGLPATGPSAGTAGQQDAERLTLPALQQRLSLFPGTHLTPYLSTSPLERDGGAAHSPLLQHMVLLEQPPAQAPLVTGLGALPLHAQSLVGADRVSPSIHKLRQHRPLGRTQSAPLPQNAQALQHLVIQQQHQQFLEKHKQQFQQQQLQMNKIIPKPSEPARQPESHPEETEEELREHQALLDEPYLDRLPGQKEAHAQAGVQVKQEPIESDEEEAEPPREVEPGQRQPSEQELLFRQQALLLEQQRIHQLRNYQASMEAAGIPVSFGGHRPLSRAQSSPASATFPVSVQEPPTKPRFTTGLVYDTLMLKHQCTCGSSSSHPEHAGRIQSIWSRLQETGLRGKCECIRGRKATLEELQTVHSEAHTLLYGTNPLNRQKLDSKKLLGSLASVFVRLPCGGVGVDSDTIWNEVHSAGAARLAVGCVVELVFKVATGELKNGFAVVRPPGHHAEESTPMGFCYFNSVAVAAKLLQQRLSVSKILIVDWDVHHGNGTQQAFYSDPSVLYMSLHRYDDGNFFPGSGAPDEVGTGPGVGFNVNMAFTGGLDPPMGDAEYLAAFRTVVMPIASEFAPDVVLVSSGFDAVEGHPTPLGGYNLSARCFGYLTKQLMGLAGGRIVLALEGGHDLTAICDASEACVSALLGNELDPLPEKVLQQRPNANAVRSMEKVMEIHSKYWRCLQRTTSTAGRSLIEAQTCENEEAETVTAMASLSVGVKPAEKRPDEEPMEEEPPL
Outline: as §1

HDAC1 = molecular target: T5, HDAC1 (Homo sapiens, UniProt Q13547); assay: In vitro HDAC enzyme inhibition assay, HDAC1; format: biochemical; settings: for HDAC1/HDAC6 in vitro selectivity: ratio of IC50 for HDAC1 relative to that of HDAC6; for pIC50: recombinant full-length HDAC1, substrate MAZ1600 21 μM
T5 construct: Recombinant, full-length HDAC protein (BPS Biosciences) was incubated with fluorophore conjugated substrate; purchased BPS Biosciences
T5 sequence (Q13547 whole entry): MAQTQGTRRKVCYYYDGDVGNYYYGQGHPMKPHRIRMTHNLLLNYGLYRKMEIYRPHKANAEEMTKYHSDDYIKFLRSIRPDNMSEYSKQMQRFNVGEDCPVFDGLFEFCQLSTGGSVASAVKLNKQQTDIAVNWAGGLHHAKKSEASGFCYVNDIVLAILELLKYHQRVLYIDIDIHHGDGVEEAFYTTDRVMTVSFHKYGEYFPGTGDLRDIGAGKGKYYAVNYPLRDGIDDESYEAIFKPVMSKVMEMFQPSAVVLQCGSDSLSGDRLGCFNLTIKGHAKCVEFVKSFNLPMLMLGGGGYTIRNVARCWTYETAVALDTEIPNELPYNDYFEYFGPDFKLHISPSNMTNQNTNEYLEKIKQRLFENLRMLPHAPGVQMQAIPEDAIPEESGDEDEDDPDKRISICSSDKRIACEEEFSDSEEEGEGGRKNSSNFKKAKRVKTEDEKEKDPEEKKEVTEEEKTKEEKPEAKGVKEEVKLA
Outline: as §1

HDAC5 = molecular target: T6, HDAC5 (Homo sapiens, UniProt Q9UQL6); assay: In vitro HDAC enzyme inhibition assay, HDAC5; format: biochemical; settings: for HDAC5/HDAC6 in vitro selectivity: ratio of IC50 for HDAC5 relative to that of HDAC6; for pIC50: recombinant full-length HDAC5, substrate MAZ1675 40 μM; for selectivity toward HDAC6 compared to HDAC5 (in words): tested in vitro
T6 construct: Recombinant, full-length HDAC protein (BPS Biosciences) was incubated with fluorophore conjugated substrate; purchased BPS Biosciences
T6 sequence (Q9UQL6 whole entry): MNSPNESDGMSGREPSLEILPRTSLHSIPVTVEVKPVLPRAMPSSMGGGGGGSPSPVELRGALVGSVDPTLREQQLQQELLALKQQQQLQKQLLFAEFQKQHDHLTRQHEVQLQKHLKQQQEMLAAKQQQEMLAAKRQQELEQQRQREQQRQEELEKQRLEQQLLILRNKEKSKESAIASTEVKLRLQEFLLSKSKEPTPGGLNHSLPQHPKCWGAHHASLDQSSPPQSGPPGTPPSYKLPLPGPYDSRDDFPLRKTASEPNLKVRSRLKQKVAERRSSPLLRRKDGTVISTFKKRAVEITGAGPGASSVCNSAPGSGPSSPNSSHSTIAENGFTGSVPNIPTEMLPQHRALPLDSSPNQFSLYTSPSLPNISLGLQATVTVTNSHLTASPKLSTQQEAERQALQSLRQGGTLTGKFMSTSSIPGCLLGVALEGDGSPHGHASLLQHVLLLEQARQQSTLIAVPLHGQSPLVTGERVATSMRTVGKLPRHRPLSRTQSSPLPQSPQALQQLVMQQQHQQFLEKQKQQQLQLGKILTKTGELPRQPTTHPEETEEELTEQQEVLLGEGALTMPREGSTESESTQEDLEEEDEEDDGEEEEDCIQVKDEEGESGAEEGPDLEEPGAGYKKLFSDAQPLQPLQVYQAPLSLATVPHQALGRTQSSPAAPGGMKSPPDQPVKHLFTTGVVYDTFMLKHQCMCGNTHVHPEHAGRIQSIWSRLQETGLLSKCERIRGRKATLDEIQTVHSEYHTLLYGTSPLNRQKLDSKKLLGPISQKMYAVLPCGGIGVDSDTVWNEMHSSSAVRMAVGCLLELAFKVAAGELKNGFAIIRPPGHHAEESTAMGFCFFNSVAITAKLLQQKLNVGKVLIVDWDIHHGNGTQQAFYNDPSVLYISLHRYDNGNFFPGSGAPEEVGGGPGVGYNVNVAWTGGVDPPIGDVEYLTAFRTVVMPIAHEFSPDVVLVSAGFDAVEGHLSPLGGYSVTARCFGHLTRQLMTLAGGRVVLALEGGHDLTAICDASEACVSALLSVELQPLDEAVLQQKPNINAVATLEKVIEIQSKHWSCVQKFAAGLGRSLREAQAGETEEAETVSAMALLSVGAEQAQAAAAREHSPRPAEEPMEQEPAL
Outline: as §1

HDAC6 = molecular target: T7, HDAC6 (Homo sapiens, UniProt Q9UBN7); assay: In vitro HDAC enzyme inhibition assay, HDAC6; format: biochemical; settings: recombinant full-length HDAC6, substrate MAZ1600 9 μM
T7 construct: Recombinant, full-length HDAC protein (BPS Biosciences) was incubated with fluorophore conjugated substrate; purchased BPS Biosciences
T7 sequence (Q9UBN7 1-1215): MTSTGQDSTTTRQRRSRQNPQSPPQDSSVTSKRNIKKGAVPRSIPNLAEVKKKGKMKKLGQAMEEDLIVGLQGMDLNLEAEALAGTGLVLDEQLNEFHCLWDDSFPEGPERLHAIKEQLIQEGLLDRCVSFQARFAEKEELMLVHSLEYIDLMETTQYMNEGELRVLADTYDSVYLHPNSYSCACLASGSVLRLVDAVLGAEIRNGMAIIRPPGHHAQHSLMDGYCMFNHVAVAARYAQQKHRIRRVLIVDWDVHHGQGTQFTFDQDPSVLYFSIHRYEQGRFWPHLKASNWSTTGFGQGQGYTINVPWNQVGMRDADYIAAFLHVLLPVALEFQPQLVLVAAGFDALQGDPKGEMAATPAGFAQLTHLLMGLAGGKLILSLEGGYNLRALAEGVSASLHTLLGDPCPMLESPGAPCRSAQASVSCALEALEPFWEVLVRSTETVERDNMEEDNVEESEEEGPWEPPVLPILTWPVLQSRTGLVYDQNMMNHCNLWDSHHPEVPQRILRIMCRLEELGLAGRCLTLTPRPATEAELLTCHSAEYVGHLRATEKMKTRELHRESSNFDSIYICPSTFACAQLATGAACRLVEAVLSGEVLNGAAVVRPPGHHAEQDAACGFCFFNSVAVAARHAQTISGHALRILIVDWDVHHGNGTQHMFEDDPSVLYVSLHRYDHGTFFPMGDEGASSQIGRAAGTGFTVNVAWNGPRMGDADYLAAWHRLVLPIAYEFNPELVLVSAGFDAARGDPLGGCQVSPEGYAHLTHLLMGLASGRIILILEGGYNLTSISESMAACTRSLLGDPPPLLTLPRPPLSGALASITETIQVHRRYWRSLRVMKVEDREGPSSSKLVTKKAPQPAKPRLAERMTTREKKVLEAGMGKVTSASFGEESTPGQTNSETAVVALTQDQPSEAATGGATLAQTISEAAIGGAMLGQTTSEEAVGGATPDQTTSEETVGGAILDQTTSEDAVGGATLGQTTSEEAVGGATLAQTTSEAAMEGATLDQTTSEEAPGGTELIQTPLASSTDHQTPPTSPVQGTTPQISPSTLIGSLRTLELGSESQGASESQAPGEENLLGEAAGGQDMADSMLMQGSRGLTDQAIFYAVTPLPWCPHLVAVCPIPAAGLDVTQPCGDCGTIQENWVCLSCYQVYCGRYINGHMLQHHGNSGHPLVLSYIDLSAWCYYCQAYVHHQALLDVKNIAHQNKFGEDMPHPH
Outline: as §1

Row | SMILES | pEC50 (acetylated histones) | HDAC3/HDAC6 in vitro selectivity (HDAC3) | pIC50 (HDAC3) | HDAC8/HDAC6 in vitro selectivity (HDAC8) | pIC50 (HDAC8) | HDAC9/HDAC6 in vitro selectivity (HDAC9) | pIC50 (HDAC9) | selectivity toward HDAC6 compared to HDAC9 (in words) (HDAC9) | pEC50 (acetylated tubulin) | AcHistone/AcTubulin in cell selectivity toward HDAC6 (acetylated tubulin) | HDAC4/HDAC6 in vitro selectivity (HDAC4) | pIC50 (HDAC4) | selectivity toward HDAC6 compared to HDAC4 (in words) (HDAC4) | HDAC1/HDAC6 in vitro selectivity (HDAC1) | pIC50 (HDAC1) | HDAC5/HDAC6 in vitro selectivity (HDAC5) | pIC50 (HDAC5) | selectivity toward HDAC6 compared to HDAC5 (in words) (HDAC5) | pIC50 (HDAC6) | levels of acetylated histone, dose response (in words) (acetylated histones) | other results
1 | O=C(NO)c1ccc(Cn2nnc3cc(F)ccc32)cc1 [C3, 4-((5-fluoro-1H-benzo[d][1,2,3]triazol-1-yl)methyl)-N-hydroxybenzamide] | 5.82 | 19646 | 6.29 | 28870 | 6.12 | 62138 | 5.79 | exceptionally high selectivity (Inhibitors with in vitro selectivity values for HDAC6 of at least 30,000 are considered to have exceptionally high selectivity toward HDAC6) | 6.84 | 10.4517 | 81082 | 5.67 | exceptionally high selectivity (Inhibitors with in vitro selectivity values for HDAC6 of at least 30,000 are considered to have exceptionally high selectivity toward HDAC6) | 8300 | 6.66 | 68665 | 5.74 | exceptionally high selectivity (Inhibitors with in vitro selectivity values for HDAC6 of at least 30,000 are considered to have exceptionally high selectivity toward HDAC6) | 10.58 | – | –
2 | O=C(NO)c1ccc(Cn2nnc3cc(Cl)ccc32)cc1 [C4, 4-((5-chloro-1H-benzo[d][1,2,3]triazol-1-yl)methyl)-N-hydroxybenzamide] | 5.22 | 3920 | 6.66 | 11132 | 6.21 | 26037 | 5.84 | – | 5.72 | 3.137 | 34808 | 5.72 | exceptionally high selectivity (Inhibitors with in vitro selectivity values for HDAC6 of at least 30,000 are considered to have exceptionally high selectivity toward HDAC6) | 1712 | 7.02 | 26352 | 5.84 | – | 10.26 | – | –
3 | O=C(NO)c1ccc(Cn2c(=O)[nH]c3cc(C(F)(F)F)ccc32)cc1 [B6, N-hydroxy-4-((2-oxo-5-(trifluoromethyl)-2,3-dihydro-1H-benzo[d]imidazol-1-yl)methyl)benzamide] | ~6.20 | 2366 | 7.83 | 48637 | 6.52 | 114680 | 6.15 | exceptionally high selectivity (Inhibitors with in vitro selectivity values for HDAC6 of at least 30,000 are considered to have exceptionally high selectivity toward HDAC6) | 7.31 | 12.98 | 229041 | 5.85 | exceptionally high selectivity (Inhibitors with in vitro selectivity values for HDAC6 of at least 30,000 are considered to have exceptionally high selectivity toward HDAC6) | 1951 | 7.92 | 122813 | 6.12 | exceptionally high selectivity (Inhibitors with in vitro selectivity values for HDAC6 of at least 30,000 are considered to have exceptionally high selectivity toward HDAC6) | 11.21 | absence of the dose-dependent response | levels of acetylated tubulin, dose response (in words) (acetylated tubulin): dose-dependent increase
4 | O=C(NO)c1ccc(Cn2nnc3ccccc32)cc1 [C1, 4-((1H-benzo[d][1,2,3]triazol-1-yl)methyl)-N-hydroxybenzamide] | 5.15 | 10277 | 6.78 | 19098 | 6.52 | 67800 | 5.96 | exceptionally high selectivity (Inhibitors with in vitro selectivity values for HDAC6 of at least 30,000 are considered to have exceptionally high selectivity toward HDAC6) | 5.57 | 2.641 | 66860 | 5.97 | exceptionally high selectivity (Inhibitors with in vitro selectivity values for HDAC6 of at least 30,000 are considered to have exceptionally high selectivity toward HDAC6) | 3996 | 7.19 | 59773 | 6.02 | exceptionally high selectivity (Inhibitors with in vitro selectivity values for HDAC6 of at least 30,000 are considered to have exceptionally high selectivity toward HDAC6) | 10.80 | – | –
5 | O=C(NO)c1ccc(Cn2c(C(F)(F)F)nc3ccccc32)cc1 [A1, N-hydroxy-4-((2-(trifluoromethyl)-1H-benzo[d]imidazol-1-yl)methyl)benzamide] | 5.20 | 3791 | 5.75 | 3764 | 5.75 | 2167 | 5.99 | – | 6.34 | 14.01 | 2948 | 5.86 | – | 1444 | 6.17 | 953 | 6.35 | – | 9.33 | absence of the dose-dependent response | levels of acetylated tubulin, dose response (in words) (acetylated tubulin): dose-dependent increase
